Assay results: ChEMBL document CHEMBL3507680, “University of Dundee, Gates Library screen for HepG2 cell viability”

Assay: Human HepG2 cell viability assay in 384 well format
Assay type: toxicity, cell-based
Set-up: dose 125 nL, time 70.5 hour; concentration not given beside the values
Settings: HepG2 cells, read-out: Inhibition

Compound	cytotoxicity at 70.5 h [%]
O=C(NCc1nn(-c2ccccc2)c2c1CCC2)N1CCSCC1	32.7
COc1ccc(C)cc1NS(=O)(=O)c1ccc(CCNC(C)=O)s1	-4.06
CNS(=O)(=O)Cc1cccc(CNCc2ccsc2)c1	-8.06
CC(C)CC(NC(=O)CSc1ccc(F)c(Cl)c1)C(=O)O (stereo not drawn)	-18.4
c1cncc(COCC2CC[C@H]3[C@H](CCN3CC3CCOCC3)O2)c1 (stereo partly drawn)	24.3
CCc1nnc(N2CCN(CCc3ccccc3)C(=O)C2)o1	-2.76
CC(CN1CCOCC1)n1cncc1-c1cnn(Cc2ccccc2)c1 (stereo not drawn)	-2.84
Cc1nc(CN(C)C2CCCN(c3cccnn3)C2)oc1C (stereo not drawn)	3.03
Cc1nc(CNC(=O)NCc2cccnc2N(C)C)cs1	-5.06
CC(C)N(C)Cc1cnc2n1CCN(S(=O)(=O)c1ccccc1)C2	15.9
Cn1c(N2CCOCC2)nc2cc(C(=O)N3CC(O)CO3)ccc21 (stereo not drawn)	32.1
Cc1c(C(C)NC2CCN(C(C)C)CC2)cnn1-c1ccc(F)cc1F (stereo not drawn)	-9.98
O=C1CC2(CCSC2)C(=O)N1Cc1ncc(-c2ccccc2)o1 (stereo not drawn)	-2.34
O=C1CC(c2ccncc2)C2(CCN(C(=O)c3cccc(F)c3)CC2)N1 (stereo not drawn)	-9.17
CCc1ccc(N2CCC(NS(=O)(=O)N(CC)CC)CC2)cc1	-5.14
O=C(c1n[nH]c(=O)c2ccccc12)N1CCC(O)(CN2CCOCC2)C1 (stereo not drawn)	14.5
c1cc(NCc2ccncc2)nc(C2CCCN2)c1 (stereo not drawn)	2.66
COc1ccc(C2CCCN2C(=O)NCCCn2cccn2)cc1 (stereo not drawn)	-11
CS(=O)(=O)c1cccc(C(N)c2ccccc2)c1 (stereo not drawn)	-1.27
Cc1cc(-c2cc(N)c(=O)n(CC(=O)NC3CCCCC3)n2)c(C)o1	-15.5
COCCOc1ccc(NC(=O)C2CC(=O)N(C3CC3)C2)cn1 (stereo not drawn)	-4.78
CCc1cnc(C)nc1NCCC(=O)N1CCC(C)CC1	-0.743
Cc1occc1C(=O)N1CCCN(Cc2nccn2C)CC1	-8.79

Compound	cytotoxicity at 70.5 h [%]
CC(=O)N1CCC2(CC1)CN(C(C)=O)CC21CCNC1=O (stereo not drawn)	16.2
Cc1cc(C(=O)NC2(c3ccc(Br)cc3)CC2)n(C)n1	6.63
CCC(C)(C)C(=O)NCCCOC1CCOC1 (stereo not drawn)	2.9
O=C1NCCO[C@H]2CN(C(=O)Cc3csc4ccccc34)CC[C@@H]12	-8.16
N#Cc1ccc(C(=O)O)nc1/C=C/c1cccc(Cl)c1	7.88
CNC1CCCN(Cc2noc(C3CC3)n2)C1 (stereo not drawn)	-7.48
CCCc1nc(CN(CC)C(=O)c2ccc(S(C)(=O)=O)cc2)no1	-8.4
CC(CN1CCC(c2ccccc2)CC1)n1cnc2ccccc21 (stereo not drawn)	-18.3
Cn1cc(N2CCCC(Nc3ccc4c(c3)CCC(=O)N4)C2=O)cn1 (stereo not drawn)	0.589
N#CCCN(C(=O)CN1CCCC1c1ccsc1)c1ccccc1 (stereo not drawn)	20.9
CC(=O)N(CCc1ccccc1)CC(=O)NC(C)(C)C#N	-2.72
c1cnc(N2CCCC(c3n[nH]c4ncccc34)C2)nc1 (stereo not drawn)	-4.04
O=C(Nc1ccccc1)c1cc2n(n1)CCCN(C(=O)c1ccc[nH]1)C2	14.9
CSCC[C@H](N)C(=O)NCc1cc2n(n1)CCCN(C1CCCCC1)C2	-5.05
COc1cc(F)ccc1C(C(=O)O)N(C)CCN1CCOCC1 (stereo not drawn)	15.1
Cc1ccc(NC(=O)N2CCCC(O)C2)c(Br)c1 (stereo not drawn)	6.64
O=C(c1nc(Cc2c[nH]c3ccccc23)no1)N1CCCCC1	-7.41
CCC(CNC(=O)c1ccccc1Br)N1CCc2ccccc2C1 (stereo not drawn)	-9.67
COc1c(F)cc(F)cc1-c1nc2c([nH]1)CCNC2	14.9
Cc1nc(CC(=O)N2CCN(c3ccc(N(C)C)cc3)CC2)cs1	4.33
CCCc1nc(N2CCN(Cc3ccccn3)CC2)c2cnn(C)c2n1	-6.11
Cc1ccc(CN2CCN(Cc3nccn3C)[C@H]3CS(=O)(=O)C[C@H]32)o1	-6.86
Cn1cnc(S(=O)(=O)NCC(O)c2ccc3c(c2)CCO3)c1 (stereo not drawn)	-16.8

Compound	cytotoxicity at 70.5 h [%]
Fc1cnc(N2CCO[C@H]3[C@H](OCC4CCOCC4)CC[C@@H]32)nc1	-9.91
CC(NC(=O)Nc1cccnc1N1CCOCC1)c1ccccc1 (stereo not drawn)	-8.45
CCc1n[nH]c(C2CN(C(=O)c3cscn3)CCO2)n1 (stereo not drawn)	43
NC(=O)Cc1csc(NC(=O)C2CSCCC(=O)N2)n1 (stereo not drawn)	1.67
CCN(Cc1cccc(C(N)=O)c1)c1ccccc1	12.2
CN(Cc1cc(F)ccc1C#N)CC(C)(CO)CO	-4.66
Cc1nn(C)cc1C1CC(=O)Nc2c1cnn2C (stereo not drawn)	-5.3
CCC[C@@H]1CN(C(=O)c2c(F)ccc(C)c2Cl)C[C@H]1C(=O)O	0.166
CC(C)NC(=O)C[C@H]1[C@H]2CN(C(=O)Cc3ccccn3)C[C@@H]12	1.47
Cc1ccnc(NC(=O)c2ccc(F)c(S(=O)(=O)NC3CC3)c2)c1	-7.61
Cc1ccc(N2CC[C@@H]3[C@@H](CO[C@H]3CNC(=O)c3ccco3)C2)nn1	-1.79
Cc1ccccc1CN(C)C(C(N)=O)c1ccccc1 (stereo not drawn)	-16.6
Cn1ccnc1-c1cccc(NC(=O)NCCN2CCOCC2)c1	-3.53
CC(C)c1noc(CCNC(=O)N2CCC(O)(C(F)(F)F)C2)n1 (stereo not drawn)	-14.8
C[C@H](c1ccc(Cl)cc1)n1c(C2CC2)n[nH]c1=O	-3.55
CC(C)(C)N1CC(C(=O)N2CC(Oc3ccc(F)cc3)C2)CC1=O (stereo not drawn)	18.6
Cc1noc(C)c1CN1C[C@@H](OCc2ccccn2)[C@H]2OCCC[C@H]21	-16.3
Cc1nc(C)n(CC2CCCN2CC(=O)Nc2cccnc2)n1 (stereo not drawn)	-0.954
CCc1ccc(CCC(=O)N2CCC(=O)Nc3cccnc32)cc1	23.9
CC(c1ccon1)N(C)C(=O)C1CCN(C(=O)C2CCC2)CC1 (stereo not drawn)	25.3
O=S(=O)(N1CCCC1)N1C[C@@H](c2cccc(F)c2)[C@@H]2NCCCCC[C@H]21	-6.83
Cc1nc(C2CCN(C(=O)c3ccn(C)n3)CC2)c2sccn12	-5.98
CN1CCOC(c2cncc(CCC(N)=O)n2)C1 (stereo not drawn)	-3.04

Compound	cytotoxicity at 70.5 h [%]
NC(=O)c1c(NC(=O)CCC(=O)O)sc2c1CCc1ccccc1-2	-9.16
O=C(Nc1ccccn1)c1csc(NC2CCCC2)n1	1.59
COC(=O)C1CCN(C(=O)Cn2nc(C)nc2-c2ccccc2)CC1	-2.98
CC(Cn1cccn1)NC(=O)CCc1nc(C(C)(C)C)no1 (stereo not drawn)	-2.44
O=C(N1CCCC1)N1CCCC2(CCN(c3ccsc3)C2=O)C1 (stereo not drawn)	-7.85
CCOc1ccccc1OC1CCN(C(=O)c2c[nH]nn2)CC1	-0.281
Fc1ccc(-c2nc(CN3CCCC3Cn3cncn3)co2)cc1F (stereo not drawn)	17.9
Fc1cccnc1N1CCOCC2(CCCN(c3nncs3)C2)C1 (stereo not drawn)	-9.83
c1cncc(CN2CCC3(CCCN(c4nncs4)C3)C2)c1 (stereo not drawn)	-7.53
CN1Cc2c(C(=O)NCC3CCCO3)ncn2-c2ccccc2S1(=O)=O (stereo not drawn)	-0.787
O=c1cc(-c2ccc(F)cc2)nc2n1CCCCC2	-14
Cc1cncc(C(=O)N2CCN(c3cnn(C)c(=O)c3)CC2)c1	-6.5
Cc1cccc(CN2C[C@@H]3CN(C(=O)c4ccco4)C[C@@H]3C2=O)c1	-1.41
CCC[C@H]1CN(Cc2cc(C)no2)C[C@@H]1NC(=O)C1(COC)CCC1	-10
Cc1cnc(NC(=O)NC(CCO)c2cccs2)s1 (stereo not drawn)	-3.17
O=C(COc1ccccc1F)N1CCCCC1c1ccn2ccnc2n1 (stereo not drawn)	-11.7
Cc1ccnc(C2(C)CCCN2S(=O)(=O)c2c(C)noc2C)n1 (stereo not drawn)	1.94
COc1ccccc1CC(C)(C)NC(=O)CC(F)(F)F	-11.8
COCCn1cnc2ccc(NC(=O)c3ccc(OC)cc3)cc2c1=O	-9.11
Cc1cc(NC(=O)NCc2nccn2C)ccc1OC(C)C	-6.18
Cc1cc(C(=O)N2CCCC(C(=O)c3nccn3C)C2)c(=O)[nH]c1C (stereo not drawn)	7.95
Cc1cc(C)cc(OCC(=O)N2CCC2)c1	-22.1
Cc1ccc(C(=O)N2CCN(CC(O)c3ccc(F)cc3)CC2)s1 (stereo not drawn)	-6.7

Compound	cytotoxicity at 70.5 h [%]
CC(C)c1nccc(C2(c3ccccc3Cl)CCNCC2)n1	10.5
CCCc1cc(N2CCCC2Cn2nc(C)nc2C)n2ncnc2n1 (stereo not drawn)	-0.261
CNC(=O)c1nc(CC(=O)Nc2ccc3cc[nH]c3c2)no1	-13.1
CCNC(c1ccc(Br)cc1)c1cccnc1 (stereo not drawn)	1.53
FC1(F)CCN(Cc2cccnc2)CC12CCN(c1ccccn1)C2 (stereo not drawn)	-15.1
CN(CC1(CO)CCC1)C(=O)c1cc(COc2ccccc2F)[nH]n1	-3.92
CC[C@H]1COCCN1C(=O)c1cnc(-c2ccccc2)nc1C	-5.37
COCc1ncn2c1CN(S(=O)(=O)Cc1ccc(C)cc1)CC2	-10.2
COc1ccc(C)cc1C1(CNc2cn[nH]c(=O)c2Cl)CCOCC1	-5.9
CCOC(=O)N1[C@@H](c2ccco2)[C@@H](C(=O)O)C[C@]12CCCCNC2=O	-7.52
Cc1ccc2oc(=O)n(CCC(=O)N3CCCC4(CNC(=O)O4)C3)c2c1 (stereo not drawn)	-1.82
Cc1ccc(NC2CCN(C(=O)COCC(F)(F)F)CC2)nn1	10.1
COCCN(C)C(=O)c1ccccc1-n1cccn1	5.05
Cc1nn(C)c(C)c1C1COCCN1C(=O)c1ccc(Cl)o1 (stereo not drawn)	10.5
O=C(O)CCc1cccc(C2CCCN2Cc2ccc(F)c(F)c2)n1 (stereo not drawn)	-6.64
CCc1cnc(N)nc1NCc1ccc(OC)cc1OC	-0.135
O=C(CCn1cnc2cc(F)c(F)cc21)N1CCN(C2CC2)CC1	-5.93
COCc1cnc2n1CCN(C(=O)c1cc3cc(Cl)ccc3o1)C2C (stereo not drawn)	18.3
CC(C)c1noc(CCNC(=O)C2COc3ccccc3C2)n1 (stereo not drawn)	13.6
Cc1cc(C)n(CC2CCCCN2CC(=O)Nc2nccs2)n1 (stereo not drawn)	-5.53
CCCNC(=O)c1cc(OC)c(OC)cc1N(C)S(C)(=O)=O	-8.53
